In US11541050B2, “Pyrimidine derivatives for the treatment of viral infections” (JANSSEN SCIENCES IRELAND UC, priority 2011, dated 2023):

Assays:
[1] = tested on: HCV replicon in Huh-7 luc/neo cells; experiment: Suppression of HCV replicon replication by conditioned media from compound-treated PBMC; format: cell-based, HCV type 1 b; settings: Hepatitis C virus; conditioned media from compound-treated PBMC on Huh-7 luc/neo replicon cells (compounds 74 onward); read-out: PBMC HUH-7 EC50
Experimental: Activation of human TLR7 results in robust production of interferon by plasmacytoid dendritic cells present in human blood. The potential of compounds to induce interferon was evaluated by looking at the antiviral activity in the HCV replicon system upon incubation with conditioned media from peripheral blood mononuclear cells (PBMC). […] The assay utilized the stably transfected cell line Huh-7 luc/neo harboring an RNA encoding a bicistronic expression construct comprising the wild type NS3-NS5B regions of HCV type 1 b translated from an Internal Ribosome Entry Site (IRES) from encephalomyocarditis virus (EMCV), preceded by a reporter gene (Firefly-luciferase) and a selectable marker gene (neoR, neomycine phosphotransferase). The construct is flanked by 5′ and 3′ NTRs (non-translated regions) from HCV type 1 b. Continued culture of the replicon cells in the presence of G418 (neoR) is dependent on the replication of the HCV RNA. The stably transfected replicon cells that replicate HCV RNA autonomously and to high levels, encoding inter alia luciferase, were used for profiling of the conditioned cell culture media.
Briefly, PBMCs were prepared from buffy coats of at least two donors using a standard Ficoll centrifugation protocol. Isolated PBMCs were resuspended in RPMI medium supplemented with 10% human AB serum and 2×10^5 cells/well were dispensed into 384-well plates containing compounds (70 μL total volume). After overnight incubation, 10 μL of supernatant was transferred to 384-well plates containing 2.2×10^3 replicon cells/well in 30 μL (plated the day before). Following 24 hours of incubation, replication was measured by assaying luciferase activity using 40 μL/well Steady Lite Plus substrate (Perkin Elmer) and measured with ViewLux ultraHTS microplate imager (Perkin Elmer). […] Recombinant interferon α-2a (Roferon-A) was used as a standard control compound.

[2] = molecular target: T1, human TLR7 (wild type sequence) (Homo sapiens, UniProt Q9NYK1); experiment: TLR7 cellular NFκB-luc reporter assay, wild type TLR7; format: cell-based; parameters: unit not given here; settings: lowest effective concentration, wild type TLR7 (compounds 74 onward)
T1 construct: expressed in transfected cells; host or cells: HEK293
T1 sequence (Q9NYK1 27-1049): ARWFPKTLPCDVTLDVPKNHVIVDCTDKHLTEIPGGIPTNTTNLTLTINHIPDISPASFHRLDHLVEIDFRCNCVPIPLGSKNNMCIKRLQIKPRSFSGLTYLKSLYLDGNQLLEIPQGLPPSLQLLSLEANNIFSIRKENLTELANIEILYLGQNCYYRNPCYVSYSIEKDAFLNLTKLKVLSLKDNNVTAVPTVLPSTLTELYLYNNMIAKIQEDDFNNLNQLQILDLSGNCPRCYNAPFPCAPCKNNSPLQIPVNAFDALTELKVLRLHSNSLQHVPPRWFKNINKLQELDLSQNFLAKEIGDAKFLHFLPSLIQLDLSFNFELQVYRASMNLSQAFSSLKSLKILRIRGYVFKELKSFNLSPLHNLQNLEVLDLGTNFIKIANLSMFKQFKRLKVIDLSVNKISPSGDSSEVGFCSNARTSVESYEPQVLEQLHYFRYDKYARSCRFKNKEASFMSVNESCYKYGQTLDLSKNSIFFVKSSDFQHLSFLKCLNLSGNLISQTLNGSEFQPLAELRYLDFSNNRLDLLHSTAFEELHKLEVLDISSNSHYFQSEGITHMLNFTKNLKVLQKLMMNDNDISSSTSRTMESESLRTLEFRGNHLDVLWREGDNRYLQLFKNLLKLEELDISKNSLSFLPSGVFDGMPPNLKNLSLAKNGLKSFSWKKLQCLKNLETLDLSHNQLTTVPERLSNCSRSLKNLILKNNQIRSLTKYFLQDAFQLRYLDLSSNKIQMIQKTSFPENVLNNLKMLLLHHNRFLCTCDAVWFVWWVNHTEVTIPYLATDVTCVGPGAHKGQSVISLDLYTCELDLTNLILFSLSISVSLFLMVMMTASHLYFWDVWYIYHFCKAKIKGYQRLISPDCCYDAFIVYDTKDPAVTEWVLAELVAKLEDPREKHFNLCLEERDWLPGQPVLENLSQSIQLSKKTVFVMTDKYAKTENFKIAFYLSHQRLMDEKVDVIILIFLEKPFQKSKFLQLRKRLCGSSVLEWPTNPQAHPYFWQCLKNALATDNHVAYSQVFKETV
Procedure, shortened: (§1)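 Luciferase signal read after 6 h compound incubation at 37 °C in HEK293 cells carrying transiently transfected TLR7 or TLR8 (wild type or LRR2-deletion) and NFκB-luc. Values are lowest effective concentrations from quadruplicate dose-response curves, effect ≥2-fold above assay SD.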

[3] = molecular target: T2, human TLR8 (wild type sequence) (Homo sapiens, UniProt Q9NR97); experiment: TLR8 cellular NFκB-luc reporter assay, wild type TLR8; format: cell-based; parameters: unit not given here; settings: lowest effective concentration, wild type TLR8 (compounds 74 onward)
T2 construct: expressed in transfected cells; host or cells: HEK293
T2 sequence (Q9NR97 27-1041): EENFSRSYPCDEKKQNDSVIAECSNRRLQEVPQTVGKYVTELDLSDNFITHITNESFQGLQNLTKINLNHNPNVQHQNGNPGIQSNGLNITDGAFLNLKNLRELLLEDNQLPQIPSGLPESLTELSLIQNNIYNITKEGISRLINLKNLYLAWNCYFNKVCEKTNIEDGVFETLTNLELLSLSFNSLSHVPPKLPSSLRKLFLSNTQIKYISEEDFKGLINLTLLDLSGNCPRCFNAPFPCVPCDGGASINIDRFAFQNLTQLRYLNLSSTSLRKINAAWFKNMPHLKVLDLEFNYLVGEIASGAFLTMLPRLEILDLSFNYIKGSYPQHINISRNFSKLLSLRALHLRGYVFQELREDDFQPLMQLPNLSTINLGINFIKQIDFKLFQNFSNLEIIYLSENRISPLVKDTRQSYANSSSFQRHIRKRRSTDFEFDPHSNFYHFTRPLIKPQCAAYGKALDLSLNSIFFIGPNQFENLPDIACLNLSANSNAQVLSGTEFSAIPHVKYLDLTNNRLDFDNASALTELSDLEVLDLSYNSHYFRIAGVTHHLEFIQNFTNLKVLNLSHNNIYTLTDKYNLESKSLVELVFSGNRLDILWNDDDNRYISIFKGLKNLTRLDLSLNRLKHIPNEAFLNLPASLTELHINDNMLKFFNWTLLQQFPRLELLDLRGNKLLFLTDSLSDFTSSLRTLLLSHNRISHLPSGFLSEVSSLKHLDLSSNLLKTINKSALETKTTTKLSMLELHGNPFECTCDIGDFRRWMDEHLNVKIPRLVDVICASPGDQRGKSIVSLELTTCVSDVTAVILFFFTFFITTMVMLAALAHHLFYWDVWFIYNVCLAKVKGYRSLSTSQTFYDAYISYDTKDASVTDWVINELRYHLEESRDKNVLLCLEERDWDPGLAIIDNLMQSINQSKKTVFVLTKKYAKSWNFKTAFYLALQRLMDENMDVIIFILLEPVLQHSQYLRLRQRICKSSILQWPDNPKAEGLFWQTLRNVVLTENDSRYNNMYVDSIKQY
Procedure, shortened: as §1

Compound | EC50 [1] [nM] | TLR 7 wt LEC [2] | TLR 8 wt LEC [3]
CCCCNc1nc(N)ncc1OCCOc1ccc(C(=O)OC)cc1OC [Compound 132] | 634 | 1.470 | >25
CCCCNc1nc(N)ncc1OCCOc1cc(OC)c(OC)c(OC)c1 [Compound 133] | 585 | 1.500 | 3.090
CCCCNc1nc(N)ncc1OCCOc1ccc(C(=O)OC)c(OC)c1 [Compound 134] | 935 | 2.010 | 2.110
CCCCNc1nc(N)ncc1OCCOc1ccc(C(F)(F)F)cc1 [Compound 135] | 3190 | 3.230 | 1.970
CCCCNc1nc(N)ncc1OCCOc1ccnc2ccsc12 [Compound 136] | 275 | 2.000 | 2.030
CCCCNc1nc(N)ncc1OCc1cccc(CC(=O)OC)c1 [Compound 137] | 22800 | 0.757 | 1.760
CCCCNc1nc(N)ncc1OCc1cccc2c1OCCCO2 [Compound 138] | 570 | 1.040 | 1.050
CCCCNc1nc(N)ncc1OCc1nccc(OCC(F)(F)F)c1C [Compound 139] | 9 | 0.025 | 0.286
CCCCNc1nc(N)ncc1OCCOc1ccc(OC)c(OC)c1 [Compound 140] | 175 | 0.617 | 2.250
CCCCNc1nc(N)ncc1OCCOc1ccnc2cc(OC)ccc12 [Compound 141] | 733 | 4.360 | 0.704
CCCCNc1nc(N)ncc1OCCOc1cc(C(C)C)nc2cc(OC)ccc12 [Compound 142] | 19700 | >25 | 2.370
CCCCNc1nc(N)ncc1OCCOc1cccnc1 [Compound 143] | 443 | 1.810 | 0.880
CCCCNc1nc(N)ncc1OCCn1ccc(=O)c2ccc(OC)cc21 [Compound 144] | 1320 | 13.010 | 20.790
CCCC[C@H](CCO)Nc1nc(N)ncc1OCc1ccccc1 [Compound 145] | 632 | 2.140 | 1.920
CCCCNc1nc(N)ncc1OCCCc1cccc(OC)c1 [Compound 146] | 707 | 1.230 | 2.300
CCCCNc1nc(N)ncc1OCCCc1cc(OC)cc(OC)c1 [Compound 147] | 746 | 2.520 | 4.340
CCCCNc1nc(N)ncc1OCCCc1cc(OC)ccc1OC [Compound 148] | 634 | 0.691 | 4.850
CCCCNc1nc(N)ncc1OCCCc1ccccc1OC [Compound 149] | 703 | 2.080 | 5.850
CCCCNc1nc(N)ncc1OCCCc1cccc(OC)c1OC [Compound 150] | 689 | 1.180 | 4.310
CCCCNc1nc(N)ncc1OCCCc1ccc2c(c1)OCO2 [Compound 151] | 188 | 0.431 | 1.860
CCCCNc1nc(N)ncc1OCCCc1ccc(Cl)cc1Cl [Compound 152] | 3350 | 5.410 | >25
CCCC[C@@H](CO)Nc1nc(N)ncc1OCCCc1ccccc1 [Compound 154] | 3020 | 3.710 | 2.960
CCCCNc1nc(N)ncc1OCc1nc(-c2ccccc2)no1 [Compound 155] | 3440 | 2.660 | 4.560
CCCCNc1nc(N)ncc1OCc1noc(-c2ccccc2)n1 [Compound 156] | 697 | 0.828 | 2.060
CCCCNc1nc(N)ncc1OCc1cc2ccccc2n(CCC(C)C)c1=O [Compound 158] | 3310 | 3.080 | >25
CCCCNc1nc(N)ncc1OCc1cc2c(cn1)[nH]c1ccccc12 [Compound 159] | 18 | 0.159 | 1.080
